Laboratory results as given in patent US8906952B2, “Indole derivative or pharmaceutically acceptable salt thereof, preparation method thereof, and pharmaceutical composition for preventing or treating metabolic diseases containing same as active ingredient” (Korea Research Institute of Bioscience and Biotechnology, priority 2011, dated 2014).
Read-outs that look alike come from different tables or passages of the source.

What was measured:
[1] = test system: HepG2 cells; experiment: DGAT inhibitory effect in HepG2 cells (triglyceride production from [14C]glycerol); type: cell-based; details: Homo sapiens; for activity at 10 µM: HepG2, 6 h, DMSO control = 100, read-out: Triglyceride production rate (%)/HepG2 cells at 10 μM; for inhibition at 10 µM: HepG2, 10 μM, read-out: biosynthesis inhibition rate of triglyceride
Description: To investigate inhibition effect on intracellular DGAT enzyme activity of the compounds obtained in Examples 1-51, intracellular DGAT enzyme activity was measured using human-derived liver HepG2 cells.
HepG2 cells were purchased from ATCC, and cultured in 37° C., 5% CO2 incubator including minimum essential medium (2 mM L-glutamine, earle's BSS adjusted to contain 1.5 g/L sodium bicarbonate, 0.1 mM nonessential amino acids, and 1 mM sodium pyruvate) added with 10% fetal bovine serum (FBS) and 1% antibiotic (100 U/ml penicillin and 100 µg/ml streptomycin).
The intracellular DGAT enzyme activity was measured based on an amount of triglycerides produced in the cultured HepG2 cells, by adding 10 μM enzyme inhibitor compounds obtained in Examples 1-51, respectively, and then determining the effect of the enzyme inhibitors according to reduction rate of the triglyceride production.
Specifically, cells were seeded 1×10^6 cell/ml per well of the 24 well culture plate, and 24 hours after incubation, medium was exchanged with FBS-free DMEM medium, and sample of 0.2 mCi [^14C]glycerol (Amersham) was added as substrate, and the reaction was allowed to occur for 6 hr. The induced production of triglyceride was catalyzed by the DGAT enzyme, and DGAT enzyme activity was determined based on the amount of production of triglyceride which was measured based on the amount of radiation. The sample was dissolved in dimethylsulfoxide (DMSO) to be used, and the control group in the triglyceride production reaction was reacted with dimethylsulfoxide only (i.e., without sample), and the amount of the triglyceride production rate was set to 100.
After the reaction completed, the substrate [^14C]glycerol which was either not absorbed into cells or not used for the reaction, were removed with phosphate-buffer-saline (PBS), and 0.5 ml extraction solvent (hexane:isopropanol=3:2, v:v) was added to extract full fat containing triglycerides. With 0.5 ml extraction solvent, extract was obtained two times for 30 min each, and 1 ml of the extract was concentrated with nitrogen gas. After removing the extraction solvent, the total fat was dissolved in organic solvent (chloroform:methanol=2:1) and spotted with thin-layer chromatography (TLC:silica gel 60F254, thickness: 0.5 mm, Merck) on the developing solvent (hexane:diethyl ether:acetic acid=80:20:1, v: v: v). Triglycerides (Rf value: 0.4) were isolated on TLC, and after exposing the TLC plate to the film with photosensitivity to radiation energy (imaging plate' Fujifilm, BMS-MS 2040) for 3 hr, the amount of [^14C] radiation of triglyceride was measured by imaging analysis (FLA 7000). The remaining cells after the extraction were dissolved in 0.3 ml 0.1 N sodium hydroxide for use in the measurement of protein concentration of the cells used for the reaction.
The experimental errors among the respective experimental groups were compensated with the experimental value which was obtained by dividing the measured radiation of triglyceride by protein concentration, and the production rate of triglyceride according to the respective compounds of Examples 1-51 are tabulated below.

[2] = molecular target: T1, human DGAT2 (Homo sapiens, UniProt Q96PD7); experiment: DGAT enzyme inhibition test, hDGAT2 enzyme from sf9 insect cells (DGAT2 selectivity); type: biochemical
T1 construct: made in house; host or cells: sf9 insect cells
T1 sequence (Q96PD7 1-388): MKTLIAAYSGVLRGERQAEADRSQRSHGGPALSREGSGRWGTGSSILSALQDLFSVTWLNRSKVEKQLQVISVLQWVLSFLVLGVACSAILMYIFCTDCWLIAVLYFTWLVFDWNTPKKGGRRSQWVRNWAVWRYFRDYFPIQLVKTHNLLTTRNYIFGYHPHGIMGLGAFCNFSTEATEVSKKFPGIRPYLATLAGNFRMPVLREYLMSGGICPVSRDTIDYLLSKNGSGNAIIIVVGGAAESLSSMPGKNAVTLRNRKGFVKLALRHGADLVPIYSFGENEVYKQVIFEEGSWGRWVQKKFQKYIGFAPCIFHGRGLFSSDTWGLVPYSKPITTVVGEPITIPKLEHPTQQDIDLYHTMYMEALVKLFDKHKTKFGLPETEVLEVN
Text: To investigate inhibitory effect of the compounds of Examples 1-33 against DGAT enzyme activity, DGAT enzyme inhibition and DGAT2 selectivity were investigated using zymogen including:
1) hDGAT1 and hDGAT2 enzymes, derived from insect cell overexpressing human DGAT1 and DGAT2 (‘sf9’), respectively,
To be specific, for the purpose of measuring human-derived DGAT enzyme inhibitory activity, using the zymogen, including enzymes derived from insect cell overexpressing human DGAT1 and DGAT2 (‘sf9’), microsomal protein isolated from human duodenal adenocarcinoma (‘Hutu 80’), and microsomal protein isolated from rat, and according to Coleman et al., (Methods Enzymol., 98-103, 1992), and substrate including 1,2-diacylglycerol(Sigma, D0138) and [^14C]palmitoyl-CoA (Amersham, CFA583), the amount of radiation of [^14C]triacylglycerol produced after enzymatic reaction was measured.
To be more specific, to the reaction solution containing 175 mM Tris-HCl (pH 8.0), 20 μl bovine serum albumin (10 mg/ml), 100 mM magnesium chloride, 30 μM [^14C]palmitoyl CoA (0.02 μCi, Amersham) and 200 μM 1,2-dioleoylglycerol, reagent dissolved in dimethylsulfoxide (10.0 μl) was added. After introducing 100 to 200 μg isolated microsomal protein and allowing the same to react at 25° C. for 10 min, the reaction was stopped by adding 1.5 ml stop solution (2-propanol:heptane:water=80:20:2, v:v:v). To isolate the product of the reaction (i.e., [^14C]triacylglycerol), 1 ml heptane and 0.5 ml distilled water were added and then decocted. After taking 1 ml supernatant, 2 ml alkaline ethanol solution (ethanol:0.5 N sodium hydroxide:water=50:10:40, v:v:v) were added and then decocted. After taking 0.65 ml supernatant from the decoction, the amount of radiation was measured with liquid scintillation counter (LSC). The DGAT inhibitory activity was calculated with Mathematical Expression 1 below:
T denotes cpm of experimental group in which the enzymatic reaction solution was treated with the sample,
C denotes cpm of control group in which the enzymatic reaction solution was not treated with the sample, and
B denotes cpm of control group treated with the sample without zymogen.

[3] = 10 μM, enzyme from sf9 cells overexpressing hDGAT2, read-out: hDGAT-2 (sf9) inhibition rate(%)at 10 μM
[4] = concentration of 10 μM, read-out: hDGAT2 inhibition

Row | Structure (SMILES) | inhibition at 10 µM [2, 3] [%] | inhibition at 10 µM [2, 4] [%] | activity at 10 µM [1] [%] | inhibition at 10 µM [1] [%]
1 | CC(C)N(NC(=O)c1ccccc1)C(=O)/C=C/c1cn(C(=O)OC(C)(C)C)c2ccccc12 [Example 1, (E)-tert-butyl 3-(3-(2-benzoyl-1-isopropylhydrazinyl)-3-oxoprop-1-enyl)-1H-indole-1-carboxylate] | 7.5 | < 11 | 60.1 | 30 to 40
2 | CC(C)N(NC(=O)c1ccccn1)C(=O)/C=C/c1cn(C(=O)OC(C)(C)C)c2ccccc12 [Example 2, (E)-tert-butyl 3-(3-(1-isopropyl-2-picolinoylhydrazinyl)-3-oxoprop-1-enyl)-1H-indole-1-carboxylate] | < 0 |  | 64.2 | 30 to 40
3 | COc1ccc(C(=O)NN(C(=O)/C=C/c2cn(C(=O)OC(C)(C)C)c3ccccc23)C(C)C)cc1 [Example 7, (E)-tert-butyl 3-(3-(1-isopropyl-2-(4-methoxybenzoyl)hydrazinyl)-3-oxoprop-1-enyl)-1H-indole-1-carboxylate] | < 0 |  | 85.8 | 
4 | CC(C)N(NC(=O)c1cccc(OCCN2CCOCC2)c1)C(=O)/C=C/c1cn(C(=O)OC(C)(C)C)c2ccccc12 [Example 8, (E)-tert-butyl 3-(3-(1-isopropyl-2-(3-(2-morpholinoethoxy)benzoyl)hydrazinyl)-3-oxoprop-1-enyl)-1H-indole-1-carboxylate] | < 0 |  | 85.2 | 
5 | CC(C)N(NC(=O)c1ccc(OCCN2CCOCC2)cc1)C(=O)/C=C/c1cn(C(=O)OC(C)(C)C)c2ccccc12 [Example 9, (E)-tert-butyl 3-(3-(1-isopropyl-2-(4-(2-morpholinoethoxy)benzoyl)hydrazinyl)-3-oxoprop-1-enyl)-1H-indole-1-carboxylate] | < 0 |  | 83.8 | 
6 | CC(C)(C)OC(=O)n1cc(/C=C/C(=O)NNC(=O)c2ccccc2)c2ccccc21 [Example 16, (E)-tert-butyl 3-(3-(2-benzoylhydrazinyl)-3-oxoprop-1-enyl)-1H-indole-1-carboxylate] | 3.7 |  | 61.7 | 30 to 40
7 | CC(C)(C)OC(=O)n1cc(/C=C/C(=O)NNS(=O)(=O)c2ccccc2)c2ccccc21 [Example 17, (E)-tert-butyl 3-(3-oxo-3-(2-(phenylsulfonyl)hydrazinyl)prop-1-enyl)-1H-indole-1-carboxylate] | < 0 |  | 81.7 | 

More lines, main results first:

Row | inhibition at 10 µM [2, 3] [%] | inhibition at 10 µM [2, 4] [%] | Structure (SMILES) | activity at 10 µM [1] [%] | inhibition at 10 µM [1] [%]
8 | < 0 |  | CC(C)N(NC(=O)c1cccnc1)C(=O)/C=C/c1cn(C(=O)OC(C)(C)C)c2ccccc12 [Example 3, (E)-tert-butyl 3-(3-(1-isopropyl-2-nicotinoylhydrazinyl)-3-oxoprop-1-enyl)-1H-indole-1-carboxylate] | 66.8 | 30 to 40
9 | < 0 |  | CC(C)N(NC(=O)c1cccc(O)c1)C(=O)/C=C/c1cn(C(=O)OC(C)(C)C)c2ccccc12 [Example 4, (E)-tert-butyl 3-(3-(2-(3-hydroxybenzoyl)-1-isopropylhydrazinyl)-3-oxoprop-1-enyl)-1H-indole-1-carboxylate] | 86.7 | 
10 | < 0 | < 11 | CC(C)N(NC(=O)c1ccc(O)cc1)C(=O)/C=C/c1cn(C(=O)OC(C)(C)C)c2ccccc12 [Example 5, (E)-tert-butyl 3-(3-(2-(4-hydroxybenzoyl)-1-isopropylhydrazinyl)-3-oxoprop-1-enyl)-1H-indole-1-carboxylate] | 62.2 | 30 to 40
11 | 0.3 |  | COc1cccc(C(=O)NN(C(=O)/C=C/c2cn(C(=O)OC(C)(C)C)c3ccccc23)C(C)C)c1 [Example 6, (E)-tert-butyl 3-(3-(1-isopropyl-2-(3-methoxybenzoyl)hydrazinyl)-3-oxoprop-1-enyl)-1H-indole-1-carboxylate] | 74.8 | 20 to 30
12 | 8.3 | < 11 | COCCOc1cccc(C(=O)NN(C(=O)/C=C/c2cn(C(=O)OC(C)(C)C)c3ccccc23)C(C)C)c1 [Example 10, (E)-tert-butyl 3-(3-(1-isopropyl-2-(3-(2-methoxyethoxy)benzoyl)hydrazinyl)-3-oxoprop-1-enyl)-1H-indole-1-carboxylate] | 62 | 30 to 40
13 | 3.9 | < 11 | CC(C)N(NC(=O)c1cccc(Br)c1)C(=O)/C=C/c1cn(C(=O)OC(C)(C)C)c2ccccc12 [Example 12, (E)-tert-butyl 3-(3-(2-(3-bromobenzoyl)-1-isopropylhydrazinyl)-3-oxoprop-1-enyl)-1H-indole-1-carboxylate] | 93.5 | 
14 | 2.3 | < 11 | CC(C)N(NC(=O)c1ccc(Br)cc1)C(=O)/C=C/c1cn(C(=O)OC(C)(C)C)c2ccccc12 [Example 13, (E)-tert-butyl 3-(3-(2-(4-bromobenzoyl)-1-isopropylhydrazinyl)-3-oxoprop-1-enyl)-1H-indole-1-carboxylate] | 87.1 | 
15 | < 0 | < 11 | CC(C)N(NC(=O)c1ccc(Cl)cc1)C(=O)/C=C/c1cn(C(=O)OC(C)(C)C)c2ccccc12 [Example 14, (E)-tert-butyl 3-(3-(2-(4-chlorobenzoyl)-1-isopropylhydrazinyl)-3-oxoprop-1-enyl)-1H-indole-1-carboxylate] | 84.4 | 
16 | < 0 | < 11 | CC(C)N(NC(=O)c1cccc(F)c1)C(=O)/C=C/c1cn(C(=O)OC(C)(C)C)c2ccccc12 [Example 15, (E)-tert-butyl 3-(3-(2-(3-fluorobenzoyl)-1-isopropylhydrazinyl)-3-oxoprop-1-enyl)-1H-indole-1-carboxylate] | 71.2 | 20 to 30
